Experimental data: US9504729B2, “Antiangiogenic small molecules and methods of use” (The United States of America, as represented by the …, priority 2009, dated 2016)

Test system: angiogenesis genes in dermal microvascular endothelial cells
Test: Real time RT-PCR of angiogenesis gene expression during endothelial tube formation
Format: cell-based
Settings: 1 μM SM, 24 hours
Experimental: For gene expression studies, three independent experiments were run for each SM tested. 90.000 cells/well (6 wells/treatment) of dermal microvascular endothelial cells (Lonza, Walkersville, Md.) were seeded on polymerized GELTREX™ gel matrix (Invitrogen, Carlsbad, Calif.) in 24 well plates. Wells were immediately treated with the same volume of 1 μM SM or PBS. After 24 hours incubation at 37° C. and 5% CO2, cells were extracted using Cell Recovery Solution (BD Biosciences, San Jose, Calif., Cat. #354253). Total RNA was extracted with the RNeasy Mini Kit (Qiagen, Valencia, Calif., Cat. #74104), and retrotranscribed using […]® First-Strand reverse transcriptase (Invitrogen, Carlsbad, Calif., Cat. #11904-018). The real time PCR reactions were performed in an Opticon 2 cycler (MJ Research, Waltham, Mass.). Amplification was performed in a final volume of 25 μl, containing 2 μl cDNA (1:10 dilution from the reversed transcribed reaction) and 2 μl of primer mixture (10 μM each of forward and reverse primers). Samples were amplified as follows: after initial denaturation at 95 C for 2 minutes, reactions were run for 46 cycles at 95° C. for 30 seconds, 60° C. for 30 seconds, and 72° C. for 45 seconds. Fluorescence was measured in every cycle and a melting curve was run after the PCR by increasing temperature from 50 to 96° C. (in 0.5° C. increments). A defined single peak was obtained for all amplicons, thus confirming the specificity of the amplification.
The genes that were monitored were selected based on their relevance to the angiogenesis process. All experiments were done in triplicate. The results are shown in the volcano plots of FIG. 17. Log 2 fold-change is presented in the X-axis and log 10 P value in the Y-axis.

With `COC(=O)C1CC(=O)C(C(=O)OC)CC1=O` (stereo not drawn) [Compound 122567] the “Log2 fold-change of gene expression: Kifc1” value was 1.1, the “Log2 fold-change of gene expression: LAMAS5” value was −1.1 and the “Log2 fold-change of gene expression: LECT1” value was 0.3. The “Log2 fold-change of gene expression: LEP” value was 0.2, the “Log2 fold-change of gene expression: Lasts2” value was 4.8 and the “Log2 fold-change of gene expression: Lrrk1” value was −0.5. The “Log2 fold-change of gene expression: MDK” value was −0.9, the “Log2 fold-change of gene expression: MMP2” value was 0.3 and the “Log2 fold-change of gene expression: MMP9” value was 0.9. For the same compound, the “Log2 fold-change of gene expression: MMP11” value was 1.3, the “Log2 fold-change of gene expression: MRC2” value was 0.7 and the “Log2 fold-change of gene expression: Mmm2” value was −3.5. The “Log2 fold-change of gene expression: Myo1b” value was −2.9, the “Log2 fold-change of gene expression: NID1” value was −6.3 and the “Log2 fold-change of gene expression: NM023516” value was 0.2. The “Log2 fold-change of gene expression: NRP1” value was −3.0, the “Log2 fold-change of gene expression: NRP2” value was −4.3 and the “Log2 fold-change of gene expression: Notch4” value was −1.1. For the same compound, the “Log2 fold-change of gene expression: Npr3” value was 1.5, the “Log2 fold-change of gene expression: PALD” value was −0.5 and the “Log2 fold-change of gene expression: PDCD2” value was −0.4. For the same compound, the “Log2 fold-change of gene expression: PDGFA” value was −1.7, the “Log2 fold-change of gene expression: PECAM1” value was −2.7 and the “Log2 fold-change of gene expression: PGF” value was −4.9. The “Log2 fold-change of gene expression: PLAU” value was −0.1, the “Log2 fold-change of gene expression: PLG” value was −1.5 and the “Log2 fold-change of gene expression: PNMT” value was 1.1. The “Log2 fold-change of gene expression: PROK2” value was 1.3, the “Log2 fold-change of gene expression: PTGS1” value was 0.8 and the “Log2 fold-change of gene expression: PTPRCAP” value was 0.0. The “Log2 fold-change of gene expression: Pltp” value was 1.5, the “Log2 fold-change of gene expression: Ptprb” value was 0.5 and the “Log2 fold-change of gene expression: Ptprm” value was −0.4. The “Log2 fold-change of gene expression: RAMP2” value was −5.8, the “Log2 fold-change of gene expression: RASD2” value was 0.5 and the “Log2 fold-change of gene expression: Rasip1” value was −1.2. The “Log2 fold-change of gene expression: S1PR1” value was −0.7, the “Log2 fold-change of gene expression: SERPINF1” value was 0.2 and the “Log2 fold-change of gene expression: SPHK1” value was 0.9. The “Log2 fold-change of gene expression: STAB1” value was −1.7, the “Log2 fold-change of gene expression: Sdc4” value was 0.4 and the “Log2 fold-change of gene expression: Sdpr” value was 1.6. The “Log2 fold-change of gene expression: Slc43a3” value was 1.8, the “Log2 fold-change of gene expression: Slco2a1” value was −0.6 and the “Log2 fold-change of gene expression: TEK” value was 0.3. The “Log2 fold-change of gene expression: TGFA” value was 2.0, the “Log2 fold-change of gene expression: TGFB1” value was −1.2 and the “Log2 fold-change of gene expression: TGFB2” value was 1.2. The “Log2 fold-change of gene expression: TGFBR1” value was 1.2, the “Log2 fold-change of gene expression: THBS1” value was 0.1 and the “Log2 fold-change of gene expression: THBS2” value was 1.2. The “Log2 fold-change of gene expression: THY1” value was −9.4, the “Log2 fold-change of gene expression: TIMP1” value was −1.4 and the “Log2 fold-change of gene expression: TIMP2” value was −1.4. For the same compound, the “Log2 fold-change of gene expression: TIMP3” value was −4.3, the “Log2 fold-change of gene expression: TNF” value was −0.2 and the “Log2 fold-change of gene expression: TNS1” value was 0.0. For the same compound, the “Log2 fold-change of gene expression: TNS3” value was 2.0, the “Log2 fold-change of gene expression: TRA2B” value was −1.6 and the “Log2 fold-change of gene expression: TYMP” value was −0.3. The “Log2 fold-change of gene expression: VEGFA” value was 4.9, the “Log2 fold-change of gene expression: VEGFC” value was 1.8 and the “Log2 fold-change of gene expression: VGLL4” value was −3.5. The “Log2 fold-change of gene expression: Vwf” value was −3.5, the “Log2 fold-change of gene expression: copa” value was 0.1 and the “Log2 fold-change of gene expression: itbp4” value was −1.9. For the same compound, the “Log2 fold-change of gene expression: ralb” value was 0.3, the “Log2 fold-change of gene expression: stard9” value was 0.5 and the “Log2 fold-change of gene expression: B2M” value (1st listing (r49)) was 0.1. For the same compound, the “Log2 fold-change of gene expression: HPRT1” value (“Log2 fold-change … HPRT1” below) (1st listing (r50)) was 0.0, the “Log2 fold-change of gene expression: RPL13A” value (“Log2 fold-change … RPL13A” for short) (1st listing (r51)) was 0.7 and the “Log2 fold-change of gene expression: GADPH” value (shortened to “Log2 fold-change … GADPH”) (1st listing (r52)) was −0.7. The “Log2 fold-change of gene expression: ACTB” value (shortened to “Log2 fold-change … ACTB”) (1st listing (r53)) was −1.0, the “Log2 fold-change of gene expression: PLXDC1” value (1st listing (r74)) was 0.7 and the “Log2 fold-change of gene expression: TNFAIP2” value (1st listing (r91)) was −1.0. For the same compound, the “Log2 fold-change of gene expression: Robo4” value (1st listing (r95)) was 0.0, the “Log2 fold-change of gene expression: 151516” value (1st listing (r134)) was 1.1 and the “Log2 fold-change of gene expression: TNFAIP2” value (2nd listing (r92)) was −1.1. For the same compound, the “Log2 fold-change of gene expression: B2M” value (2nd listing (r97)) was −0.2, the “Log2 fold-change … HPRT1” value (2nd listing (r98)) was 0.0 and the “Log2 fold-change … RPL13A” value (2nd listing (r99)) was 1.2. For the same compound, the “Log2 fold-change … GADPH” value (2nd listing (r100)) was −0.8, the “Log2 fold-change … ACTB” value (2nd listing (r101)) was −1.0 and the “Log2 fold-change of gene expression: PLXDC1” value (2nd listing (r104)) was −1.7. The “Log2 fold-change of gene expression: 151516” value (2nd listing (r139)) was 1.3, the “Log2 fold-change of gene expression: Robo4” value (2nd listing (r188)) was 1.2 and the “Log2 fold-change of gene expression: B2M” value (3rd listing (r145)) was −0.2. For the same compound, the “Log2 fold-change … HPRT1” value (3rd listing (r146)) was −0.6, the “Log2 fold-change … RPL13A” value (3rd listing (r147)) was 0.9 and the “Log2 fold-change … GADPH” value (3rd listing (r148)) was −0.7. For the same compound, the “Log2 fold-change … ACTB” value (3rd listing (r149)) was −0.5, the “Log2 fold-change of gene expression: B2M” value (4th listing (r193)) was 0.3 and the “Log2 fold-change … HPRT1” value (4th listing (r194)) was −0.2. The “Log2 fold-change … RPL13A” value (4th listing (r195)) was 1.3, the “Log2 fold-change … GADPH” value (4th listing (r196)) was −2.0 and the “Log2 fold-change … ACTB” value (4th listing (r197)) was −0.1.
